One assay relates to ERK1/2 signaling pathway. Particulars: pre-treated with 0.1 μM CID 2745687 for 1 hour.
A further assay deals with Caco-2 cells. As to the kind of experiment: Wound healing (scratch) assay. The class given is cell-based, human. Particulars: pre-incubated with 0.1 μM CID 2745687.

As for `CCCOc1ccccc1-c1nc2nn[nH]c2c(=O)[nH]1` [zaprinast], in the assay on ERK1/2 signaling pathway, the “ERK1/2 phosphorylation increase when treated with CID 2745687” value is on record as “reversed”. Moreover, in the assay with Caco-2 cells, the “wound-healing activity after GPR35 inhibition” value is reported as “abolished”.

“human epidermal growth factor [EGF, a well-known wound therapeutic agent, positive control]”: the “wound-healing activity after GPR35 inhibition” value in the assay with Caco-2 cells is “not inhibited”.
